Values joined by “and” are separate entries in the source; they are usually repeats but may differ in a detail not shown here. Equal entries are not always repeated. Marks after values point to notes of the source that are not given here.
Key:
[1] = system: dogs, coronary thrombotic occlusion; experiment: Canine coronary thrombosis and fibrinolysis model, adjunctive treatment with rtPA (Example 7); type: in vivo, dog; details: dogs
Method: Thrombotic occlusion was induced by electrical injury to a coronary artery in dogs. […] Buccal mucosa bleeding times, PT, and aPTT were measured as indices of bleeding risk. After 24 hours of reperfusion, infarct size was determined by Evan's blue and triphenyltetrazolium chloride double staining. This protocol is illustrated in FIG. 7.

[2] = system: pigs, coronary injury with stenting; experiment: Coronary injury (balloon overstretch) and bare metal stent in pigs: platelet accumulation and luminal stenosis (Example 6); type: in vivo, pig
Method: Coronary injury with or without stenting in pigs is regarded as the best preclinical model for simulation of human angioplasty (Touchard, A. G., et al., Thromb. Res. (2007) 120:477-484). One coronary artery was injured by balloon overstretch in each pig and the site of injury including some overlap with the non-injured vessel was covered with a single bare metal stent (BMS).
Accumulation of ^111In-labeled autologous platelets on the stents over the first 24 h was measured in 4/6 pigs in each group. Radiolabeled platelets were injected 15 min before the coronary catheterization and the hearts perfusion-fixed after 24 h to obtain the stented vessel segment for counting radiolabeled platelets.

[3] = system: rats, thromboembolic stroke (MCA occlusion); experiment: Rat model of thromboembolic stroke (MCA occlusion by preformed clot), apyrase agent plus aspirin (Example 2); type: in vivo; details: for Neurological deficits, median (interquartile range 25th to 75th), modified Bederson score: n = 10
Method: In this study, four experimental groups were included (n=10):
(1) control, saline injected gastrically;
(2) aspirin, 1.25 mg/kg (equivalent to 100 mg/day dose in human) injected gastrically once a day, starting 3 days prior to middle cerebral artery (MCA) occlusion and also MCA occlusion until the end of each experiment;
(3) apyrase, dose at 0.75 mg/kg injected IV at 2 h after MCA occlusion;
(4) combination group, aspirin and apyrase agent.
In this clinically relevant embolic model, ischemic brain injury was induced by embolizing preformed clots into the middle cerebral artery (MCA). Ten microliters of blood were withdrawn into a catheter and retained for 15 min to allow formation of a clot. Once the clot was formed, the catheter was advanced 17 mm in the ICA until its tip was 1-2 mm away from the origin of the MCA. The preformed clot in the catheter was then injected, and the catheter was removed. […]
Infarct was measured in the brain section stained with 2,3,5-triphenyltetrazolium chloride (TTC) solution. The infarct volume was expressed as a percentage of the total volume from the ipsilateral hemisphere.
Brain swelling (edema) was determined using a formula: edema=(the volume of the right hemisphere—the volume of the left hemisphere)/the volume of the left hemisphere.
Neurological deficits were determined using a modified Bederson's scoring system as following: 0: no observable deficit; 1: forelimb flexion; 2: forelimb flexion plus decreased resistance to lateral push; 3: unidirectional circling; 4: unidirectional circling plus decreased level of consciousness.
Hemorrhagic transformation was quantified by detection of extracellular hemoglobin content in brain homogenates using Drabkin's reagents.

[4] = system: pigs, coronary injury with stenting; experiment: Coronary injury and stent in pigs: hematology, blood chemistry, coagulation, bleeding and inflammation markers (Example 6); details: for ALT / AST / AlkPh / BUN / Creat / Glu / HGB / K / Na / PCV / Platelets / RBC / Tot. Prot / WBC: single animals and mean ± std. dev.
[5] = system: rats, embolic stroke (thrombus injection into internal carotid artery); experiment: Embolic stroke model in rats, apyrase agent with or without r-tPA (Example 1); type: in vivo, rat; details: r-tPA 10 mg/kg alone; brains at 3 days
Method: The following groups were included in this study:
(1) control (saline treated), n=11;
(2) apyrase agent at 0.75 mg/kg, n=4;
(3) apyrase agent at 2.25 mg/kg, n=4;
(4) r-tPA (at 10 mg/kg), n=4;
(5) apyrase agent at 0.75 mg/kg plus r-tPA (10 mg/kg) and
(6) apyrase agent at 2.25 mg/kg plus r-tPA (10 mg/kg) (n=10).
All the treatments were initiated at 2 h following thrombus injection into internal carotid artery. Infarct volume and behavioral deficit were determined at day 3 after the stroke.

[6] = system: ADP-induced platelet aggregation; experiment: Ex vivo ADP-induced platelet aggregation in platelet-rich plasma in pigs (Example 5); design: species or system pig
[7] = system: ADP-induced platelet aggregation; experiment: Ex vivo ADP-induced platelet aggregation in platelet-rich plasma after dosing rabbits; design: species or system rabbit; details: clopidogrel 10 mg/kg oral
Excerpt: Blood samples taken at various time points were heparinized.
Data are presented as relative light transmission versus time.

[8] = aspirin 5 mg/kg, clopidogrel 4 mg/kg
[9] = by the end of adjunctive therapy

Compound | ALT [4] | AST [4] | AlkPh [4] | BUN [4] | Creat [4] | Glu [4] | HGB [4] | K [4] | Na [4] | PCV [4] | Platelets [4] | RBC [4] | Tot. Prot [4] | WBC [4] | further results
CC(=O)Oc1ccccc1C(=O)O [aspirin] | 48 u/L and 25 u/L and 52 u/L and 50 u/L and 106 u/L | 45 u/L and 24 u/L and 38 u/L and 29 u/L and 211 u/L | 95 u/L and 68 u/L and 132 u/L and 117 u/L and 235 u/L | 12 mg/dL and 10 mg/dL and 4 mg/dL and 7 mg/dL and 11 mg/dL | 1.1 mg/dL (4×) and 0.9 mg/dL | 30 mg/dL and 38 mg/dL and 49 mg/dL and 20 mg/dL and 58 mg/dL | 9.3 g/dL and 8.1 g/dL (3×) and 7.2 g/dL | 3.5 mmol/L and 3.3 mmol/L and 3.6 mmol/L and 3.2 mmol/L and 2.7 mmol/L | 135 mmol/L and 140 mmol/L and 138 mmol/L and 144 mmol/L and 117 mmol/L | 26.8% and 27.7% and 23.9% and 22.8% and 20.7% | 301 thns/uL and 498 thns/uL and 355 thns/uL and 499 thns/uL and 213 thns/uL | 5.19 mil/uL and 4.75 mil/uL and 4.9 mil/uL and 5.07 mil/uL and 4.52 mil/uL | 6 g/dL and 4.5 g/dL and 4 g/dL and 5 g/dL and 4.2 g/dL | 10.3 thns/uL and 16.4 thns/uL and 13.2 thns/uL and 13.9 thns/uL and 13.3 thns/uL | Re-occlusion rate [1, 8]: 100%; Re-occlusion time [1, 8]: 81′; Reperfusion Time ([1]; aspirin 5 mg/kg, clopidogrel 4 mg/kg, after r-tPA): 23′; average luminal stenosis ([2]; 30 days after stenting, six measurements in two pigs): 29.6±6%; accumulation of radiolabeled platelets on stented coronaries ([2]; after 24 h, apyrase […] or clopidogrel 8 mg/kg, each with aspirin 10 mg/kg and heparin): 5.5×10^5 platelets/mm^2; Neurological deficits, median (interquartile range 25th to 75th), modified Bederson score ([3]; 4 h after MCA occlusion): 3; Neurological deficits, median (interquartile range 25th to 75th), modified Bederson score ([3]; 4 h after MCA occlusion, listed as Aspirin (ASA)): 3 (2-4); Neurological deficits, median (interquartile range 25th to 75th), modified Bederson score ([3]; 8 h after MCA occlusion): 2.5 (2-3); infarct volume, percentage of the total volume of the ipsilateral hemisphere (mean±SD) ([3]; 24 h after MCA occlusion, aspirin 1.25 mg/kg gastrically once a day from 3 days prior, apyrase 0.75 mg/kg IV at 2 h): 20.69±2.85%; Neurological deficits, median (interquartile range 25th to 75th), modified Bederson score ([3]; 24 h after MCA occlusion): significantly less severe than the control group; Neurological deficits, median (interquartile range 25th to 75th), modified Bederson score ([3]; 24 h after MCA occlusion, listed as Aspirin (ASA)): 1.5 (1-2)*; extracellular hemoglobin content in brain homogenates (hemorrhagic transformation, Drabkin's reagents) ([3]; 24 h after ischemic injury): 0.93±0.11; brain edema (brain swelling) ([3]; 24 h after ischemic injury, aspirin 1.25 mg/kg, apyrase 0.75 mg/kg IV at 2 h): 6.81±0.56%
heparin | – | – | – | – | – | – | – | – | – | – | – | – | – | – | Activated Clotting Time relative to baseline ([4]; after heparin 150 U/kg): > 9 fold; Activated Clotting Time (ACT) ([4]; after heparin 150 U/kg (baseline 119±15 sec, n=17)): 1114 ± 286 s
r-tPA: recombinant tissue plasminogen activator | – | – | – | – | – | – | – | – | – | – | – | – | – | – | Hemorrhage #/total animals [5]: 5 out of 11 and 5/11
COC(=O)[C@H](c1ccccc1Cl)N1CCc2sccc2C1 [clopidogrel] | 47 u/L and 65 u/L and 45 u/L (2×) and 43 u/L and 77 u/L | 61 u/L and 63 u/L and 57 u/L and 31 u/L and 44 u/L and 64 u/L | 131 u/L and 111 u/L and 225 u/L and 180 u/L (2×) and 184 u/L | 13 mg/dL and 12 mg/dL and 8 mg/dL and 7 mg/dL and 11 mg/dL and 5 mg/dL | 0.9 mg/dL (4×) and 1 mg/dL (2×) | 20 mg/dL and 33 mg/dL and 69 mg/dL and 40 mg/dL (2×) and 30 mg/dL | 7.6 g/dL and 7.8 g/dL and 6.7 g/dL and 9.2 g/dL and 9 g/dL and 8.5 g/dL | 4.3 mmol/L and 4.2 mmol/L (2×) and 3.5 mmol/L and 4.4 mmol/L (2×) | 131 mmol/L and 132 mmol/L and 119 mmol/L and 140 mmol/L and 134 mmol/L and 138 mmol/L | 21.4% and 22.9% and 20.8% and 28% and 25% and 25.8% | 248 thns/uL and 347 thns/uL and 345 thns/uL and 294 thns/uL and 298 thns/uL and 225 thns/uL | 4.3 mil/uL and 4.7 mil/uL (2×) and 4.6 mil/uL and 5.8 mil/uL and 5.5 mil/uL | 4.8 g/dL and 5.2 g/dL and 4.2 g/dL and 4.5 g/dL and 4.7 g/dL and 4.6 g/dL | 10.8 thns/uL and 16.1 thns/uL and 11.3 thns/uL and 16.9 thns/uL (2×) and 12 thns/uL | buccal mucosa bleeding time [1]: significantly prolonged; PT [1, 9]: increased; aPTT [1, 9]: increased; platelet aggregation by 24 h ([6]; 24 h after dosing): persistent inhibition of aggregation; time after dosing at which significant inhibition of ADP-induced platelet aggregation began ([6]; clopidogrel 8 mg/kg gavage plus aspirin and heparin): 5 h; time after treatment at which significant effect on platelet aggregation was observed [7]: 5 h; blood loss from a standardized incision of the abdominal wall ([4]; 2 and 24 h, blood collected over 5 min): trend for an increase in blood loss by 24 h; template bleeding times relative to apyrase agent or control pigs ([4]; 2 and 24 h, scalpel cut at the edge of the ear): ~3 fold; PT compared to baseline ([4]; 3, 8 and 24 h after gavage): increased significantly compared to baseline; aPTT ([4]; during the time of heparinization): the increase was significant only in clopidogrel-treated pigs; template bleeding time ([4]; summary of findings): markedly increased

From patent US8535662B2, “Apyrase therapy for bleeding conditions” (Apt Therapeutics, Inc., priority 2010, dated 2013)
